Test results published in ChEMBL document CHEMBL5316263, “Structure-Based Discovery of Selective Histone Deacetylase 8 Degraders with Potent Anticancer Activity” (J Med Chem, 2023).
One block for each compound: values may come before it. Calls of active or inactive are those of the source. The rule behind the calls is not given here.

Columns and labels:
[1] = target: T1, Protein cereblon/Histone deacetylase 8 (Homo sapiens) (UniProt Q9BY41+Q96SW2); test: Protac activity at CRBN/HDAC8 in human A549 cells assessed as degradation of HDAC8 at 200 nM measured after 20 hrs by Western blot analysis relative to control; assay type: cell-based
T1 sequence (Q96SW2 whole entry, looked up, one chain of several): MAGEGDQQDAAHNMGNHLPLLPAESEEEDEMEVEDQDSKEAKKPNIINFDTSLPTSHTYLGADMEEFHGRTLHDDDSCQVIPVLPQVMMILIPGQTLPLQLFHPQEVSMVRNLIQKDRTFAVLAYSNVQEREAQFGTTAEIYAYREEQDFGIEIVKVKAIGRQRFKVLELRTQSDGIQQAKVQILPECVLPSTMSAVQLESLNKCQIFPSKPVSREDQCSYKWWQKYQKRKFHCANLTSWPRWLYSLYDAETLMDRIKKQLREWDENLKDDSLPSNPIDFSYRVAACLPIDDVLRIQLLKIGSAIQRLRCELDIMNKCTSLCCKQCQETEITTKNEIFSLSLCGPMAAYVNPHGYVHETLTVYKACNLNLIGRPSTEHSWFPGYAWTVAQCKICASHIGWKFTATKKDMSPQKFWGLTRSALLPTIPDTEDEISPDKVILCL

[2] = target: T1, Protein cereblon/Histone deacetylase 8 (Homo sapiens); test: Protac activity at CRBN/HDAC8 in human A549 cells assessed as degradation of HDAC8 at 2 uM measured after 20 hrs by Western blot analysis relative to control; assay type: cell-based
A549 [3] = test: Antiproliferative activity against human A549 cells assessed as inhibition of cell growth measured after 72 hrs by CCK-8 method; assay type: functional, cell-based; conditions: for IC50: A549, 72 h; for Activity: dose <= 1.5 µM
[4] = target: Cereblon/Ikaros (Homo sapiens) (UniProt Q96SW2+Q13422); test: Protac activity at CRBN/IKZF1 in human A549 cells assessed as reduction in IKZF1 protein level at 10 uM by Western blot analysis; assay type: cell-based
[5] = target: T1, Protein cereblon/Histone deacetylase 8 (Homo sapiens); test: Protac activity at CRBN/HDAC8 in human A549 cells assessed as reduction in HDAC8 protein level at 0.1 to 10 uM by Western blot analysis; assay type: cell-based; conditions: dose 0.1-10 µM
[6] = target: Protein cereblon/Histone deacetylase 8 (Homo sapiens, UniProt Q96SW2+Q9BY41); test: Protac activity at CRBN/HDAC8 in human A549 cells assessed as degradation of HDAC8 incubated for 20 hrs by ELISA method; assay type: cell-based
Chain of Protein cereblon/Histone deacetylase 8 (Q96SW2 whole entry, one chain of several): as the sequence (Q96SW2 whole entry, looked up, one chain of several) above

[7] = target: T1, Protein cereblon/Histone deacetylase 8 (Homo sapiens); test: Protac activity at CRBN/HDAC8 in human A549 cells assessed as maximum degradation at 10 uM incubated for 20 hrs by ELISA method relative to control; assay type: cell-based
[8] = target: T2, von Hippel-Lindau disease tumor suppressor/Histone deacetylase 8 (Homo sapiens) (UniProt Q9BY41+P40337); test: Protac activity at VHL/HDAC8 in human A549 cells assessed as degradation of HDAC8 at 200 nM measured after 20 hrs by Western blot analysis relative to control; assay type: cell-based
T2 sequence (P40337 whole entry, looked up, one chain of several): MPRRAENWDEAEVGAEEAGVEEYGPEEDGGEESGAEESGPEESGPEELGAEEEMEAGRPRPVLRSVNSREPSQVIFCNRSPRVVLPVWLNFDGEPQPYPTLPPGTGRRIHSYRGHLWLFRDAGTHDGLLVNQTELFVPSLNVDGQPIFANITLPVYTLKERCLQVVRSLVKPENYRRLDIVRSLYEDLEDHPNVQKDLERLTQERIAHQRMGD

[9] = target: T2, von Hippel-Lindau disease tumor suppressor/Histone deacetylase 8 (Homo sapiens); test: Protac activity at VHL/HDAC8 in human A549 cells assessed as degradation of HDAC8 at 2 uM measured after 20 hrs by Western blot analysis relative to control; assay type: cell-based
A549 [10] = test: Inhibition of colony formation in human A549 cells assessed as reduction in cell proliferation at 2.5 to 10 uM measured after 7 to 10 days with media replenishment along with compound for every 3 days by crystal violet staining based analysis; assay type: functional; conditions: dose 2.5-10 µM, time 7-10 day
HCT-116 = test: Inhibition of colony formation in human HCT-116 cells assessed as reduction in cell proliferation at 2.5 to 10 uM measured after 7 to 10 days with media replenishment along with compound for every 3 days by crystal violet staining based analysis; assay type: functional; conditions: dose 2.5-10 µM, time 7-10 day
[11] = target: T2, von Hippel-Lindau disease tumor suppressor/Histone deacetylase 8 (Homo sapiens); test: Protac activity at VHL/HDAC8 in human A549 cells assessed as degradation of HDAC8 by Western blot analysis; assay type: cell-based; conditions: dose 0.1-10 µM
[12] = target: von Hippel-Lindau disease tumor suppressor/Histone deacetylase 1 (Homo sapiens) (UniProt Q13547+P40337); test: Protac activity at VHL/HDAC1 in human A549 cells assessed as degradation of HDAC1 at 0.1 to 10 uM by Western blot analysis; assay type: cell-based; conditions: dose 0.1-10 µM
Chain of von Hippel-Lindau disease tumor suppressor/Histone deacetylase 1 (Homo sapiens) (P40337 whole entry, looked up): as the sequence (P40337 whole entry, looked up, one chain of several) above
Chain of von Hippel-Lindau disease tumor suppressor/Histone deacetylase 1 (Homo sapiens) (Q13547 whole entry, looked up): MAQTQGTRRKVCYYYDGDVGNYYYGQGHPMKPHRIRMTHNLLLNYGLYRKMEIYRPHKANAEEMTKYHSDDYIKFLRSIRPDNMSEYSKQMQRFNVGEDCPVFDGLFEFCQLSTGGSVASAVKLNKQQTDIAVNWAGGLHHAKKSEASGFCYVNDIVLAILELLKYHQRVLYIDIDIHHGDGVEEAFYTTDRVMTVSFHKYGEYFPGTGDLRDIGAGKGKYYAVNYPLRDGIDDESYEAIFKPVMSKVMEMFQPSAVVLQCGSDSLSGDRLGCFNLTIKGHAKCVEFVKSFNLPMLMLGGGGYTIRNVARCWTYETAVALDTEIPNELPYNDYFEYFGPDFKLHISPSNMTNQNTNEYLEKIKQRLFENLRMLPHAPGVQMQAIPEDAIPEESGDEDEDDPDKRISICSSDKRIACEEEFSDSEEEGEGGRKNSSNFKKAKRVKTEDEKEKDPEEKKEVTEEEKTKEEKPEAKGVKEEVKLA

[13] = target: von Hippel-Lindau disease tumor suppressor/Histone deacetylase 2 (Homo sapiens) (UniProt Q92769+P40337); test: Protac activity at VHL/HDAC2 in human A549 cells assessed as degradation of HDAC2 at 0.1 to 10 uM by Western blot analysis; assay type: cell-based; conditions: dose 0.1-10 µM
Chain of von Hippel-Lindau disease tumor suppressor/Histone deacetylase 2 (Homo sapiens) (P40337 whole entry, looked up): as the sequence (P40337 whole entry, looked up, one chain of several) above
Chain of von Hippel-Lindau disease tumor suppressor/Histone deacetylase 2 (Homo sapiens) (Q92769 whole entry, looked up): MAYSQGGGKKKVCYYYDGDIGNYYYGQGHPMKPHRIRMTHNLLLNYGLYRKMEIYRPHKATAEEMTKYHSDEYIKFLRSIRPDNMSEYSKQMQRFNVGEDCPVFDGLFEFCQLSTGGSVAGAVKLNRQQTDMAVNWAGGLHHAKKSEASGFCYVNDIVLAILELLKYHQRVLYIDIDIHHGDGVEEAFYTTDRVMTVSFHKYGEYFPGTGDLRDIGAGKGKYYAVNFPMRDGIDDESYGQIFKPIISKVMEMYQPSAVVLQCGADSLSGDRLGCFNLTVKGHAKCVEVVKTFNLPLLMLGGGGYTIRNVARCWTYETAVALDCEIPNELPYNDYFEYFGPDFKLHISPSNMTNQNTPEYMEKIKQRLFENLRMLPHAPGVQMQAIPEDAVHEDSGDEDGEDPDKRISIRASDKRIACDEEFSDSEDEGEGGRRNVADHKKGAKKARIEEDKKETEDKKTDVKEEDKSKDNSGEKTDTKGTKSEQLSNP

[14] = target: von Hippel-Lindau disease tumor suppressor/Histone deacetylase 3 (Homo sapiens) (UniProt O15379+P40337); test: Protac activity at VHL/HDAC3 in human A549 cells assessed as degradation of HDAC3 at 0.1 to 10 uM by Western blot analysis; assay type: cell-based; conditions: dose 0.1-10 µM
Chain of von Hippel-Lindau disease tumor suppressor/Histone deacetylase 3 (Homo sapiens) (O15379 whole entry, looked up): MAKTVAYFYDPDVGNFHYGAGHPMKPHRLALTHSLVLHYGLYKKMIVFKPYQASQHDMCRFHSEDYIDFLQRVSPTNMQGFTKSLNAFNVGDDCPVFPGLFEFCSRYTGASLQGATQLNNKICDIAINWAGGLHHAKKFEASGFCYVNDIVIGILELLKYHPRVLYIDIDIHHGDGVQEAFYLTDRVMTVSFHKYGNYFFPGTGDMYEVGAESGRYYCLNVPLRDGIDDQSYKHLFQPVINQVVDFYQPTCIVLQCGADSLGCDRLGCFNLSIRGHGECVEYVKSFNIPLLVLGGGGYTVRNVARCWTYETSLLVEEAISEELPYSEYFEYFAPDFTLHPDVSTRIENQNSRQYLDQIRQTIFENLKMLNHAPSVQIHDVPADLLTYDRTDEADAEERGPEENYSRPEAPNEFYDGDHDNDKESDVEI
Chain of von Hippel-Lindau disease tumor suppressor/Histone deacetylase 3 (Homo sapiens) (P40337 whole entry, looked up): as the sequence (P40337 whole entry, looked up, one chain of several) above

[15] = target: T3, Histone deacetylase 8 (Homo sapiens) (UniProt Q9BY41); test: Induction of degradation in HDAC8 in human A549 cells at 200 nM measured after 20 hrs by Western blot analysis relative to control; assay type: cell-based
T3 sequence (whole entry): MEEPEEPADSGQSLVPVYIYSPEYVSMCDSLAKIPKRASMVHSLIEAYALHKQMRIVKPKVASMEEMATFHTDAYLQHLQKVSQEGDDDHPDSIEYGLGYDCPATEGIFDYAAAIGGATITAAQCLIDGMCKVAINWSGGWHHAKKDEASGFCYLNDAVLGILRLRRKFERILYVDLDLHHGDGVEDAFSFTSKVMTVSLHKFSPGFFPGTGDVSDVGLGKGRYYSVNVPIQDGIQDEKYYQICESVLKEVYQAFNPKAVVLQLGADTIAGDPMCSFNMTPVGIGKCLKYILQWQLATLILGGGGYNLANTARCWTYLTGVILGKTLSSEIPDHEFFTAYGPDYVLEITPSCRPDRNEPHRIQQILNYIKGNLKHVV

[16] = target: T3, Histone deacetylase 8 (Homo sapiens); test: Induction of degradation in HDAC8 in human A549 cells at 2 microM measured after 20 hrs by Western blot analysis relative to control; assay type: cell-based
A549 [17] = test: Antiproliferative activity against human A549 cells assessed as inhibition of cell growth measured after 72 hrs under irradiation by CCK-8 method; assay type: functional, cell-based; conditions: A549, light or radiation study
A549 [18] = test: Induction of apoptosis in human A549 cells assessed as viable cells at 10 uM measured after 72 hrs by annexin V-FITC staining based flow cytometry (reference value: 99.1%); assay type: functional; conditions: read-out: Activity
A549 [19] = test: Induction of apoptosis in human A549 cells assessed as viable cells at 20 uM measured after 72 hrs by annexin V-FITC staining based flow cytometry (reference value: 99.1%); assay type: functional; conditions: read-out: Activity
A549 [20] = test: Induction of apoptosis in human A549 cells assessed as viable cells at 30 uM measured after 72 hrs by annexin V-FITC staining based flow cytometry (reference value: 99.1%); assay type: functional; conditions: read-out: Activity
A549 [21] = test: Induction of apoptosis in human A549 cells assessed as viable cells at 40 uM measured after 72 hrs by annexin V-FITC staining based flow cytometry (reference value: 99.1%); assay type: functional; conditions: read-out: Activity
A549 [22] = test: Induction of apoptosis in human A549 cells assessed as early apoptotic cells at 10 uM measured after 72 hrs by annexin V-FITC staining based flow cytometry (reference value: 0.13%); assay type: functional
A549 [23] = test: Induction of apoptosis in human A549 cells assessed as early apoptotic cells at 20 uM measured after 72 hrs by annexin V-FITC staining based flow cytometry (reference value: 0.13%); assay type: functional
A549 [24] = test: Induction of apoptosis in human A549 cells assessed as early apoptotic cells at 30 uM measured after 72 hrs by annexin V-FITC staining based flow cytometry (reference value: 0.13%); assay type: functional
A549 [25] = test: Induction of apoptosis in human A549 cells assessed as early apoptotic cells at 40 uM measured after 72 hrs by annexin V-FITC staining based flow cytometry (reference value: 0.13%); assay type: functional
A549 [26] = test: Induction of apoptosis in human A549 cells assessed as late apoptotic cells at 10 uM measured after 72 hrs by annexin V-FITC staining based flow cytometry (reference value: 0.20%); assay type: functional
A549 [27] = test: Induction of apoptosis in human A549 cells assessed as late apoptotic cells at 20 uM measured after 72 hrs by annexin V-FITC staining based flow cytometry (reference value: 0.20%); assay type: functional
A549 [28] = test: Induction of apoptosis in human A549 cells assessed as late apoptotic cells at 30 uM measured after 72 hrs by annexin V-FITC staining based flow cytometry (reference value: 0.20%); assay type: functional
A549 [29] = test: Induction of apoptosis in human A549 cells assessed as late apoptotic cells at 40 uM measured after 72 hrs by annexin V-FITC staining based flow cytometry (reference value: 0.20%); assay type: functional
A549 [30] = test: Induction of apoptosis in human A549 cells assessed as necrotic cells at 10 uM measured after 72 hrs by annexin V-FITC staining based flow cytometry (reference value: 0.005%); assay type: functional
A549 [31] = test: Induction of apoptosis in human A549 cells assessed as necrotic cells at 20 uM measured after 72 hrs by annexin V-FITC staining based flow cytometry (reference value: 0.005%); assay type: functional
A549 [32] = test: Induction of apoptosis in human A549 cells assessed as necrotic cells at 30 uM measured after 72 hrs by annexin V-FITC staining based flow cytometry (reference value: 0.005%); assay type: functional
A549 [33] = test: Induction of apoptosis in human A549 cells assessed as necrotic cells at 40 uM measured after 72 hrs by annexin V-FITC staining based flow cytometry (reference value: 0.005%); assay type: functional

Activity [8]: 26.7%
Activity [9]: 50.2%
SMILES: Cc1ncsc1-c1ccc([C@H](C)NC(=O)[C@@H]2C[C@@H](O)CN2C(=O)[C@@H](NC(=O)COCCOCCOCCOc2ccc(Cn3ccc4ccc(C(=O)NO)cc43)cc2)C(C)(C)C)cc1

Activity [8]: 45.7%
Activity [9]: 91.3%
Activity [11]: Active
Activity [12]: inactive
Activity [13]: inactive
Activity [14]: inactive
SMILES: Cc1ncsc1-c1ccc([C@H](C)NC(=O)[C@@H]2C[C@@H](O)CN2C(=O)[C@@H](NC(=O)COCCOc2ccc(Cn3ccc4ccc(C(=O)NO)cc43)cc2)C(C)(C)C)cc1
inhibition (A549 [10]): Active
inhibition (HCT-116): Active

Activity [1]: 25.6%
Activity [2]: 69.4%
SMILES: O=C1CCC(N2C(=O)c3cccc(NCc4cn(CCCOc5ccc(Cn6ccc7ccc(C(=O)NO)cc76)cc5)nn4)c3C2=O)C(=O)N1 (centres undefined)

Activity [8]: 15.9%
Activity [9]: 26.4%
SMILES: Cc1ncsc1-c1ccc([C@H](C)NC(=O)[C@@H]2C[C@@H](O)CN2C(=O)[C@@H](NC(=O)CCCOc2ccc(Cn3ccc4ccc(C(=O)NO)cc43)cc2)C(C)(C)C)cc1

Activity [8]: 29.8%
Activity [9]: 73.6%
SMILES: Cc1ncsc1-c1ccc([C@H](C)NC(=O)[C@@H]2C[C@@H](O)CN2C(=O)[C@@H](NC(=O)CCCCCCOc2ccc(Cn3ccc4ccc(C(=O)NO)cc43)cc2)C(C)(C)C)cc1

The next lines start with the compound.

SMILES: O=C1CCC(N2C(=O)c3cccc(NCc4cn(CCCCCOc5ccc(Cn6ccc7ccc(C(=O)NO)cc76)cc5)nn4)c3C2=O)C(=O)N1 (centres undefined)
Activity [1]: 39.5%
Activity [2]: 85.9%
IC50 (A549 [3]): 12.5 µM
Activity (A549 [3]): Dose-Dependent Effect
Activity [4]: Active
Activity [5]: Active
EC50 [6]: 0.62 µM
Emax [7]: 90.2%

SMILES: O=C1CCC(N2C(=O)c3cccc(NCc4cn(CCOCCOCCOCCOc5ccc(Cn6ccc7ccc(C(=O)NO)cc76)cc5)nn4)c3C2=O)C(=O)N1 (centres undefined)
Activity [1]: 36.5%
Activity [2]: 65.9%

SMILES: O=C1CCC(N2C(=O)c3cccc(NCc4cn(CCCCOc5ccc(Cn6ccc7ccc(C(=O)NO)cc76)cc5)nn4)c3C2=O)C(=O)N1 (centres undefined)
Activity [1]: 30.6%
Activity [2]: 83.6%
IC50 (A549 [3]): 7.11 µM
Activity (A549 [3]): Dose-Dependent Effect
Activity [4]: Active
Activity [5]: Active
EC50 [6]: 0.47 µM
Emax [7]: 90.2%

SMILES: COc1ccc(Cn2ccc3ccc(C(=O)NO)cc32)cc1
Activity [15]: 3.6%
Activity [16]: 5%
IC50 (A549 [3]): 15.8 µM
IC50 (A549 [17]): 13.1 µM
viability at 10 µM (A549 [18]): 45.6%
viability at 20 µM (A549 [19]): 29%
viability at 30 µM (A549 [20]): 24.6%
viability at 40 µM (A549 [21]): 28.6%
Activity (A549 [22]): 42%
Activity (A549 [23]): 50.7%
Activity (A549 [24]): 63%
Activity (A549 [25]): 46.3%
Activity (A549 [26]): 11.7%
Activity (A549 [27]): 9.71%
Activity (A549 [28]): 12%
Activity (A549 [29]): 24.9%
Activity (A549 [30]): 0.7%
Activity (A549 [31]): 0.67%
Activity (A549 [32]): 0.47%
Activity (A549 [33]): 1.21%
